Data from patent US11945806B2, “Stabilization of amyloidogenic immunoglobulin light chains” (The Scripps Research Institute, priority 2019, dated 2024).

The molecules below were run against WIL-FL (Homo sapiens, UniProt P01721) (assay: Unlabeled LC Protease Sensitivity Assay (proteinase K)). Settings: small molecule 10 μM, WIL-FL 5 μM, proteinase K 50 nM, 2 hours at 37° C.
Assay type: biochemical
How it was run: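 Compound at 10 μM (1% DMSO) is mixed with 5 μM WIL-FL and 50 nM proteinase K in PBS pH 7.4/0.02% Pluronic F-127, 37 °C, 2 h, then quenched with PMSF. Remaining protein measured by SEC-UPLC peak area at 280 nm and expressed as fold protection relative to vehicle and no-protease controls.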
In the case of `CCN(CC)c1ccc2c(C)c(CN3C(=O)CNC3=O)c(=O)oc2c1` [Compound 129, 3-((7-(diethylamino)-4-methyl-2-oxo-2H-chromen-3-yl)methyl)imidazolidine-2,4-dione], the “Protection (fold protection of LC from protease)” value is reported as “B (3 ≤ B < 0.6)”. With `CCN(CC)c1ccc2c(C)c(CCN3C(=O)CNC3=O)c(=O)oc2c1` [Compound 130, 3-(2-(7-(diethylamino)-4-methyl-2-oxo-2H-chromen-3-yl)ethyl)imidazolidine-2,4-dione] the “Protection (fold protection of LC from protease)” value was “B (3 ≤ B < 0.6)”. With `CCN(CC)c1ccc2c(C)c(CCNC(=O)NC)c(=O)oc2c1` [Compound 131, 1-(2-(7-(diethylamino)-4-methyl-2-oxo-2H-chromen-3-yl)ethyl)-3-methylurea] the “Protection (fold protection of LC from protease)” value was “B (3 ≤ B < 0.6)”. In the case of `CCN(CC)c1ccc2c(C)c(CCOC(=O)NCCNc3ccccn3)c(=O)oc2c1` [Compound 132, 2-(7-(diethylamino)-4-methyl-2-oxo-2H-chromen-3-yl)ethyl (2-(pyridin-2-ylamino)ethyl)carbamate], the “Protection (fold protection of LC from protease)” value is reported as “C (C ≥ 0.6)”. For `CCN(CC)c1ccc2c(C)c(CCOC(=O)NCCCN(C)C)c(=O)oc2c1` [Compound 133, 2-(7-(diethylamino)-4-methyl-2-oxo-2H-chromen-3-yl)ethyl (3-(dimethylamino)propyl)carbamate], the “Protection (fold protection of LC from protease)” value was “B (3 ≤ B < 0.6)”. For `CCN(CC)c1ccc2c(C)c(CCOC(=O)NCc3cccc(CN(C)C)c3)c(=O)oc2c1` [Compound 135, 2-(7-(diethylamino)-4-methyl-2-oxo-2H-chromen-3-yl)ethyl (3-((dimethylamino)methyl)benzyl)carbamate], the “Protection (fold protection of LC from protease)” value was “C (C ≥ 0.6)”. For `CCc1cc(=O)oc2cc(N(CC)CC)ccc12` [Compound 136, 7-(diethylamino)-4-ethyl-2H-chromen-2-one], the “Protection (fold protection of LC from protease)” value was “A (A < 0.3))”. In the case of `CCN(CC)c1ccc2c(C)c(CCOC(=O)NCc3ccc4[nH]ccc4c3)c(=O)oc2c1` [Compound 137, 2-(7-(diethylamino)-4-methyl-2-oxo-2H-chromen-3-yl)ethyl ((1H-indol-5-yl)methyl)carbamate], the “Protection (fold protection of LC from protease)” value is reported as “B (3 ≤ B < 0.6)”. `CCN(CC)c1ccc2c(C)c(CCOC(=O)NCc3ccc(=O)[nH]c3)c(=O)oc2c1` [Compound 138, 2-(7-(diethylamino)-4-methyl-2-oxo-2H-chromen-3-yl)ethyl ((6-oxo-1,6-dihydropyridin-3-yl)methyl)carbamate] was tested, and the “Protection (fold protection of LC from protease)” value was “A (A < 0.3))”. `CCN(CC)c1ccc2c(C)c(CCOC(=O)NCc3nccc4ccccc34)c(=O)oc2c1` [Compound 139, 2-(7-(diethylamino)-4-methyl-2-oxo-2H-chromen-3-yl)ethyl (isoquinolin-1-ylmethyl)carbamate] was tested, and the “Protection (fold protection of LC from protease)” value was “A (A < 0.3))”. For `CCN(CC)c1ccc2c(C)c(CCOC(=O)NCc3cncc4ccccc34)c(=O)oc2c1` [Compound 140, 2-(7-(diethylamino)-4-methyl-2-oxo-2H-chromen-3-yl)ethyl (isoquinolin-4-ylmethyl)carbamate], the “Protection (fold protection of LC from protease)” value was “A (A < 0.3))”. For `CCN(CC)c1ccc2c(C)c(CCOC(=O)NCc3cccc(-c4c[nH]cn4)c3)c(=O)oc2c1` [Compound 141, 2-(7-(diethylamino)-4-methyl-2-oxo-2H-chromen-3-yl)ethyl (3-(1H-imidazol-4-yl)benzyl)carbamate], the “Protection (fold protection of LC from protease)” value was “C (C ≥ 0.6)”. For `CCN(CC)c1ccc2c(C)c(CCOC(=O)NCc3ccc4nc[nH]c4c3)c(=O)oc2c1` [Compound 142, 2-(7-(diethylamino)-4-methyl-2-oxo-2H-chromen-3-yl)ethyl ((1H-benzo[d]imidazol-6-yl)methyl)carbamate], the “Protection (fold protection of LC from protease)” value was “C (C ≥ 0.6)”. With `CCN(CC)c1ccc2c(C)c(CCOC(=O)NCc3ccc4cc[nH]c(=O)c4c3)c(=O)oc2c1` [Compound 143, 2-(7-(diethylamino)-4-methyl-2-oxo-2H-chromen-3-yl)ethyl ((1-oxo-1,2-dihydroisoquinolin-7-yl)methyl)carbamate] the “Protection (fold protection of LC from protease)” value was “B (3 ≤ B < 0.6)”. In the case of `CCN(CC)c1ccc2c(C)c(CCOC(=O)NCc3ccc(F)c(C(N)=O)c3)c(=O)oc2c1` [Compound 144, 2-(7-(diethylamino)-4-methyl-2-oxo-2H-chromen-3-yl)ethyl (3-carbamoyl-4-fluorobenzyl)carbamate], the “Protection (fold protection of LC from protease)” value is reported as “C (C ≥ 0.6)”. `CCN(CC)c1ccc2c(C)c(CCOC(=O)NCc3cc(F)cc(C(N)=O)c3)c(=O)oc2c1` [Compound 145, 2-(7-(diethylamino)-4-methyl-2-oxo-2H-chromen-3-yl)ethyl (3-carbamoyl-5-fluorobenzyl)carbamate] was tested, and the “Protection (fold protection of LC from protease)” value was “C (C ≥ 0.6)”. In the case of `CCN(CC)c1ccc2c(C)c(CCOC(=O)NCC3CCCNC3)c(=O)oc2c1` (stereo not shown) [Compound 146, 2-(7-(diethylamino)-4-methyl-2-oxo-2H-chromen-3-yl)ethyl (piperidin-3-ylmethyl)carbamate], the “Protection (fold protection of LC from protease)” value is reported as “B (3 ≤ B < 0.6)”. `CCN(CC)c1ccc2c(C)c(CCOC(=O)NCC3CCNCC3)c(=O)oc2c1` [Compound 147, 2-(7-(diethylamino)-4-methyl-2-oxo-2H-chromen-3-yl)ethyl (piperidin-4-ylmethyl)carbamate] was tested, and the “Protection (fold protection of LC from protease)” value was “B (3 ≤ B < 0.6)”. With `CCN(CC)c1ccc2c(C)c(CCOC(=O)NCC3CCN(C)CC3)c(=O)oc2c1` [Compound 148, 2-(7-(diethylamino)-4-methyl-2-oxo-2H-chromen-3-yl)ethyl ((1-methylpiperidin-4-yl)methyl)carbamate] the “Protection (fold protection of LC from protease)” value was “B (3 ≤ B < 0.6)”. In the case of `CCN(CC)c1ccc2c(C)c(CCOC(=O)NCc3cccc(S(N)(=O)=O)c3)c(=O)oc2c1` [Compound 149, 2-(7-(diethylamino)-4-methyl-2-oxo-2H-chromen-3-yl)ethyl (3-sulfamoylbenzyl)carbamate], the “Protection (fold protection of LC from protease)” value is reported as “C (C ≥ 0.6)”. `CCN(CC)c1ccc(NC(=O)CN2C(=O)CNC2=O)cc1` [Compound 150, N-(4-(diethylamino)phenyl)-2-(2,5-dioxoimidazolidin-1-yl)acetamide] was tested, and the “Protection (fold protection of LC from protease)” value was “A (A < 0.3))”. In the case of `O=C(CN1C(=O)CNC1=O)Nc1ccc(C(F)(F)F)cc1` [Compound 151, 2-(2,5-dioxoimidazolidin-1-yl)-N-(4-(trifluoromethyl)phenyl)acetamide], the “Protection (fold protection of LC from protease)” value is reported as “A (A < 0.3))”. `Cc1c(CN2CCOCC2)c(=O)oc2cc(OC(C)c3ccccc3)ccc12` (stereo not shown) [Compound 152, 4-methyl-3-(morpholinomethyl)-7-(1-phenylethoxy)-2H-chromen-2-one] was tested, and the “Protection (fold protection of LC from protease)” value was “B (3 ≤ B < 0.6)”. In the case of `CCN(CC)c1ccc2c(C)c(CCOC(=O)NCc3cccc(-c4ncc[nH]4)c3)c(=O)oc2c1` [Compound 153, 2-(7-(diethylamino)-4-methyl-2-oxo-2H-chromen-3-yl)ethyl (3-(1H-imidazol-2-yl)benzyl)carbamate], the “Protection (fold protection of LC from protease)” value is reported as “C (C ≥ 0.6)”. In the case of `CCN(CC)c1ccc2c(C)c(CCOC(=O)NCc3cccc(-c4ccccn4)c3)c(=O)oc2c1` [Compound 154, 2-(7-(diethylamino)-4-methyl-2-oxo-2H-chromen-3-yl)ethyl (3-(pyridin-2-yl)benzyl)carbamate], the “Protection (fold protection of LC from protease)” value is reported as “C (C ≥ 0.6)”. `CCN(CC)c1ccc2c(C)c(CCOC(=O)NCc3cccc(-c4ncccn4)c3)c(=O)oc2c1` [Compound 155, 2-(7-(diethylamino)-4-methyl-2-oxo-2H-chromen-3-yl)ethyl (3-(pyrimidin-2-yl)benzyl)carbamate] was tested, and the “Protection (fold protection of LC from protease)” value was “C (C ≥ 0.6)”. In the case of `CCN(CC)c1ccc2c(C)c(CCOC(=O)NCc3cccc(-c4cncnc4)c3)c(=O)oc2c1` [Compound 156, 2-(7-(diethylamino)-4-methyl-2-oxo-2H-chromen-3-yl)ethyl (3-(pyrimidin-5-yl)benzyl)carbamate], the “Protection (fold protection of LC from protease)” value is reported as “B (3 ≤ B < 0.6)”. `CCN(CC)c1ccc2c(C)c(CCOC(=O)NCc3cccc(-c4cnccn4)c3)c(=O)oc2c1` [Compound 157, 2-(7-(diethylamino)-4-methyl-2-oxo-2H-chromen-3-yl)ethyl (3-(pyrazin-2-yl)benzyl)carbamate] was tested, and the “Protection (fold protection of LC from protease)” value was “C (C ≥ 0.6)”. With `CCN(CC)c1ccc2c(C)c(CCN3CC4(CCN(c5ccccc5)CC4)NC3=O)c(=O)oc2c1` [Compound 158, 3-(2-(7-(diethylamino)-4-methyl-2-oxo-2H-chromen-3-yl)ethyl)-8-phenyl-1,3,8-triazaspiro[4.5]decan-2-one] the “Protection (fold protection of LC from protease)” value was “B (3 ≤ B < 0.6)”. For `CCN(CC)c1ccc2c(C)c(CCOC(=O)NCc3cccc(-c4cc[nH]n4)c3)c(=O)oc2c1` [Compound 159, 2-(7-(diethylamino)-4-methyl-2-oxo-2H-chromen-3-yl)ethyl (3-(1H-pyrazol-5-yl)benzyl)carbamate], the “Protection (fold protection of LC from protease)” value was “C (C ≥ 0.6)”. In the case of `CCN(CC)c1ccc2c(C)c(CCOC(=O)NCc3cccc(-c4nc[nH]c4C)c3)c(=O)oc2c1` [Compound 160, 2-(7-(diethylamino)-4-methyl-2-oxo-2H-chromen-3-yl)ethyl (3-(5-methyl-1H-imidazol-4-yl)benzyl)carbamate], the “Protection (fold protection of LC from protease)” value is reported as “C (C ≥ 0.6)”. For `CCN(CC)c1ccc2c(C)c(CCOC(=O)NCc3cccc(-c4cccnc4)c3)c(=O)oc2c1` [Compound 161, 2-(7-(diethylamino)-4-methyl-2-oxo-2H-chromen-3-yl)ethyl (3-(pyridin-3-yl)benzyl)carbamate], the “Protection (fold protection of LC from protease)” value was “C (C ≥ 0.6)”. For `CCN(CC)c1ccc2c(C)c(CCOC(=O)NCc3cccc(-c4ccncc4)c3)c(=O)oc2c1` [Compound 162, 2-(7-(diethylamino)-4-methyl-2-oxo-2H-chromen-3-yl)ethyl (3-(pyridin-4-yl)benzyl)carbamate], the “Protection (fold protection of LC from protease)” value was “C (C ≥ 0.6)”. `CCN(CC)c1ccc2c(C)c(CCOC(=O)NCc3cccc(-c4ccc[nH]c4=O)c3)c(=O)oc2c1` [Compound 163, 2-(7-(diethylamino)-4-methyl-2-oxo-2H-chromen-3-yl)ethyl (3-(2-oxo-1,2-dihydropyridin-3-yl)benzyl)carbamate] was tested, and the “Protection (fold protection of LC from protease)” value was “C (C ≥ 0.6)”.
